Reference: ChEMBL document CHEMBL1159069, “[Lys(DOTA)4]BVD15, a novel and potent neuropeptide Y analog designed for Y1 receptor-targeted breast tumor imaging” (Bioorg Med Chem Lett, 2010)
pKi: −log10 of the molar value. Where “and” joins values, the source holds several entries; their conditions need not be identical. Equal values may be shown once. Where a SMILES comes first, the peptide text is derived from it. The star is where a group is joined. DOTA = O=C(O)CN1CCN(CC(=O)O)CCN(CC(=O)*)CCN(CC(=O)O)CC1

Columns and labels:
Type in all cases: cell-based
[1] = molecular target: T1, Neuropeptide Y receptor type 1 (Homo sapiens, UniProt P25929); assay: Displacement of [125I]NPY from human neuropeptide Y1 receptor expressed in human MCF7 cells after 40 mins; conditions: for pKi: read-out: Ki
T1 sequence (P25929 whole entry): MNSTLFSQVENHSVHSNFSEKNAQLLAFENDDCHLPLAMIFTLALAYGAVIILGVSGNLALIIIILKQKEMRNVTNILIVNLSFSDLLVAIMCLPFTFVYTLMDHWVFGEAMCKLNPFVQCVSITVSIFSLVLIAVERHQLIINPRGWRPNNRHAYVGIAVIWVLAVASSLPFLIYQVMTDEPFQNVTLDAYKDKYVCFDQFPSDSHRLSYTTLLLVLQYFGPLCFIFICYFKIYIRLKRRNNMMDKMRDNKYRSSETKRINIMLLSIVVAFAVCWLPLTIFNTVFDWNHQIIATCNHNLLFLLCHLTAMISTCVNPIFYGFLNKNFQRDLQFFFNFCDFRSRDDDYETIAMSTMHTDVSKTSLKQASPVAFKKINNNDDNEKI

[2] = molecular target: T2, Neuropeptide Y receptor type 2 (Homo sapiens, UniProt P49146); assay: Displacement of [125I]PYY from human neuropeptide Y2 receptor expressed in human SK-N-BE2 cells after 40 mins
T2 sequence (P49146 whole entry): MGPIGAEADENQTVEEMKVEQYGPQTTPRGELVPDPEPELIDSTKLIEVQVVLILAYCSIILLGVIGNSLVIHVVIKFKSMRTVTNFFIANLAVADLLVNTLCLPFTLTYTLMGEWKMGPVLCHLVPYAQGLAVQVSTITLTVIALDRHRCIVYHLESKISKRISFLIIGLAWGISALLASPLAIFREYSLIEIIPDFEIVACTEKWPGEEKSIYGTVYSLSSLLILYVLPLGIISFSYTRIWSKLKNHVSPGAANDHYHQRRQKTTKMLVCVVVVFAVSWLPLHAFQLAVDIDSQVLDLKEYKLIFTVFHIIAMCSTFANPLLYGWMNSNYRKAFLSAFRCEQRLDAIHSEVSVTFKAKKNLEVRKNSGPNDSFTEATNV

[3] = molecular target: Neuropeptide Y receptor type 4 (Homo sapiens, UniProt P50391); assay: Displacement of [125I]Pancreatic polypeptide from human neuropeptide Y4 receptor in human HEK293 cells after 40 mins
Neuropeptide Y receptor type 4, sequence (P50391 whole entry): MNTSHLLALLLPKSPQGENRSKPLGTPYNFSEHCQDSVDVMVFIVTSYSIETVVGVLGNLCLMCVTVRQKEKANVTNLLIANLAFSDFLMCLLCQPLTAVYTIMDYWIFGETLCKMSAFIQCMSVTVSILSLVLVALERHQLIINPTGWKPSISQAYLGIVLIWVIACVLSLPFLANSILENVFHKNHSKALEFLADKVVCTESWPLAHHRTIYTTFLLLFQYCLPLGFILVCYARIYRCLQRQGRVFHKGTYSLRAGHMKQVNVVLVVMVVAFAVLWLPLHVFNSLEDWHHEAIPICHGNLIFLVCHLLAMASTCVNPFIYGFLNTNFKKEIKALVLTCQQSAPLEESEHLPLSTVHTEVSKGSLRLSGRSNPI

In the case of H-IKPIYRLRY-NH2, the pKi [1] was 6.89.

H-INPIYRLRY-OH was tested, and the pKi [1] was 8.30 and 7.41, the pKi ([2]; read-out: Ki) was 7.95 and the pKi ([3]; read-out: Ki) was 8.24.

For `CC(C)C[C@H](NC(=O)[C@H](CCCNC(=N)N)NC(=O)[C@H](Cc1ccc(O)cc1)NC(=O)[C@H](CCCCNC(=O)CN1CCN(CC(=O)O)CCN(CC(=O)O)CCN(CC(=O)O)CC1)NC(=O)[C@@H]1CCCN1C(=O)[C@@H](N)CC(N)=O)C(=O)N[C@@H](CCCNC(=N)N)C(=O)N[C@@H](Cc1ccc(O)cc1)C(=O)O` (H-NPK(DOTA)YRLRY-OH), the Ki ([1]; mcf7) was “Not Active”.

In the case of `CC[C@H](C)[C@H](N)C(=O)N[C@@H](CC(N)=O)C(=O)N1CCC[C@H]1C(=O)N[C@@H](CCCCNC(=O)CN1CCN(CC(=O)O)CCN(CC(=O)O)CCN(CC(=O)O)CC1)C(=O)N[C@@H](Cc1ccc(O)cc1)C(=O)N[C@@H](CCCNC(=N)N)C(=O)N[C@@H](CC(C)C)C(=O)N[C@@H](CCCNC(=N)N)C(=O)N[C@@H](Cc1ccc(O)cc1)C(N)=O`, the Ki [2] was “Not Active” and the Ki ([3]; hek293) was “Not Active”.
